From PubChem BioAssay AID180 (DTP/NCI, 2004)
“And” between values parts separate entries of the source, which are not always exact repeats. Equal values may be shown once.

Tested on: BDF1 mice, Adenocarcinoma 755 s.c., tumor weight T/C
Assay: NCI In Vivo Anticancer Drug Screen. Data for tumor model Adenocarcinoma 755 (subcutaneous) in B6D2F1 (BDF1) mice
Settings: endpoint: mean tumor weight, higher = larger tumour
Method: The antitumor activity of compounds was measured in mice bearing transplantable tumors. Survival or tumor size were measured and the results are expressed as the measurement made in the treated group (T) divided by the measurement made in the vehicle treated control group (C). The tumor model used in this assay is Adenocarcinoma 755 (subcutaneous) in B6D2F1 (BDF1) mice

Nc1nc(SCc2ccccc2)c2[nH]cnc2n1
T/C (dose: 0.37 mg/kg/injection, schedule: Q01DX011 (ip), vehicle: carboxymethylcellulose (CMC)): 114 % of control | T/C (dose: 0.37 mg/kg/injection, schedule: Q01DX011 (oral), vehicle: carboxymethylcellulose (CMC)): 71 % of control | T/C (dose: 0.75 mg/kg/injection, schedule: Q01DX011 (ip), vehicle: carboxymethylcellulose (CMC)): 38 % of control | T/C (dose: 0.75 mg/kg/injection, schedule: Q01DX011 (oral), vehicle: carboxymethylcellulose (CMC)): 52 % of control | T/C (dose: 1.0 mg/kg/injection, schedule: Q#A X021 (ip), vehicle: carboxymethylcellulose (CMC)): 45 % of control | T/C (dose: 1.25 mg/kg/injection, schedule: Q01DX011 (ip), vehicle: carboxymethylcellulose (CMC)): 53 % of control | T/C (dose: 1.5 mg/kg/injection, schedule: Q01DX011 (im), vehicle: carboxymethylcellulose (CMC)): 69 % of control | T/C (dose: 1.5 mg/kg/injection, schedule: Q01DX011 (ip), vehicle: carboxymethylcellulose (CMC)): 41 % of control | T/C (dose: 1.5 mg/kg/injection, schedule: Q01DX011 (oral), vehicle: carboxymethylcellulose (CMC)): 61 % of control | T/C (dose: 1.75 mg/kg/injection, schedule: Q01DX001 (ip), vehicle: carboxymethylcellulose (CMC)): 94 % of control and 114 % of control | T/C (dose: 2.0 mg/kg/injection, schedule: Q01DX006 (iv), vehicle: carboxymethylcellulose (CMC)): 91 % of control | T/C (dose: 2.0 mg/kg/injection, schedule: Q01DX011 (im), vehicle: carboxymethylcellulose (CMC)): 38 % of control | T/C (dose: 2.0 mg/kg/injection, schedule: Q01DX011 (ip), vehicle: carboxymethylcellulose (CMC)): 33 % of control | T/C (dose: 2.0 mg/kg/injection, schedule: Q01DX011 (sc), vehicle: carboxymethylcellulose (CMC)): 56 % of control | T/C (dose: 2.0 mg/kg/injection, schedule: Q#A X021 (ip), vehicle: carboxymethylcellulose (CMC)): 15 % of control | T/C (dose: 2.5 mg/kg/injection, schedule: Q01DX011 (ip), vehicle: carboxymethylcellulose (CMC)): 32 % of control | T/C (dose: 3.0 mg/kg/injection, schedule: Q01DX011 (im), vehicle: carboxymethylcellulose (CMC)): 12 % of control | T/C (dose: 3.0 mg/kg/injection, schedule: Q01DX011 (ip), vehicle: carboxymethylcellulose (CMC)): 5 % of control | T/C (dose: 3.0 mg/kg/injection, schedule: Q01DX011 (oral), vehicle: carboxymethylcellulose (CMC)): 19 % of control | T/C (dose: 3.5 mg/kg/injection, schedule: Q01DX001 (ip), vehicle: carboxymethylcellulose (CMC)): 112 % of control and 115 % of control | T/C (dose: 4.0 mg/kg/injection, schedule: Q01DX006 (iv), vehicle: carboxymethylcellulose (CMC)): 40 % of control | T/C (dose: 4.0 mg/kg/injection, schedule: Q01DX011 (im), vehicle: carboxymethylcellulose (CMC)): 10 % of control | T/C (dose: 4.0 mg/kg/injection, schedule: Q01DX011 (ip), vehicle: carboxymethylcellulose (CMC)): 8 % of control | T/C (dose: 4.0 mg/kg/injection, schedule: Q01DX011 (sc), vehicle: carboxymethylcellulose (CMC)): 13 % of control | T/C (dose: 7.0 mg/kg/injection, schedule: Q01DX001 (ip), vehicle: carboxymethylcellulose (CMC)): 20 % of control and 33 % of control | T/C (dose: 8.0 mg/kg/injection, schedule: Q01DX006 (iv), vehicle: carboxymethylcellulose (CMC)): 13 % of control | T/C (dose: 8.0 mg/kg/injection, schedule: Q01DX011 (im), vehicle: carboxymethylcellulose (CMC)): 3 % of control | T/C (dose: 8.0 mg/kg/injection, schedule: Q01DX011 (ip), vehicle: carboxymethylcellulose (CMC)): 3 % of control | T/C (dose: 8.0 mg/kg/injection, schedule: Q01DX011 (sc), vehicle: carboxymethylcellulose (CMC)): 4 % of control | T/C (dose: 8.0 mg/kg/injection, schedule: Q03DX004 (ip), vehicle: carboxymethylcellulose (CMC)): 25 % of control | T/C (dose: 14.0 mg/kg/injection, schedule: Q07DX002 (ip), vehicle: carboxymethylcellulose (CMC)): 34 % of control | T/C (dose: 16.0 mg/kg/injection, schedule: Q01DX006 (iv), vehicle: carboxymethylcellulose (CMC)): 7 % of control | T/C (dose: 16.0 mg/kg/injection, schedule: Q01DX011 (im), vehicle: carboxymethylcellulose (CMC)): 2 % of control | T/C (dose: 16.0 mg/kg/injection, schedule: Q01DX011 (ip), vehicle: carboxymethylcellulose (CMC)): 3 % of control | T/C (dose: 16.0 mg/kg/injection, schedule: Q01DX011 (sc), vehicle: carboxymethylcellulose (CMC)): 3 % of control | T/C (dose: 16.0 mg/kg/injection, schedule: Q03DX004 (ip), vehicle: carboxymethylcellulose (CMC)): 8 % of control | T/C (dose: 24.0 mg/kg/injection, schedule: Q01DX006 (iv), vehicle: carboxymethylcellulose (CMC)): 4 % of control | T/C (dose: 24.0 mg/kg/injection, schedule: Q01DX011 (im), vehicle: carboxymethylcellulose (CMC)): 4 % of control | T/C (dose: 24.0 mg/kg/injection, schedule: Q01DX011 (ip), vehicle: carboxymethylcellulose (CMC)): 3 % of control | T/C (dose: 24.0 mg/kg/injection, schedule: Q01DX011 (sc), vehicle: carboxymethylcellulose (CMC)): 3 % of control | T/C (dose: 28.0 mg/kg/injection, schedule: Q01DX001 (ip), vehicle: carboxymethylcellulose (CMC)): 12 % of control | T/C (dose: 28.0 mg/kg/injection, schedule: Q07DX002 (ip), vehicle: carboxymethylcellulose (CMC)): 30 % of control | T/C (dose: 32.0 mg/kg/injection, schedule: Q01DX006 (iv), vehicle: carboxymethylcellulose (CMC)): 5 % of control | T/C (dose: 32.0 mg/kg/injection, schedule: Q01DX011 (im), vehicle: carboxymethylcellulose (CMC)): 3 % of control | T/C (dose: 48.0 mg/kg/injection, schedule: Q01DX011 (sc), vehicle: carboxymethylcellulose (CMC)): 2 % of control | T/C (dose: 56.0 mg/kg/injection, schedule: Q01DX001 (ip), vehicle: carboxymethylcellulose (CMC)): 10 % of control | T/C (dose: 56.0 mg/kg/injection, schedule: Q07DX002 (ip), vehicle: carboxymethylcellulose (CMC)): 18 % of control | T/C (dose: 64.0 mg/kg/injection, schedule: Q01DX011 (sc), vehicle: carboxymethylcellulose (CMC)): 3 % of control | T/C (dose: 112.0 mg/kg/injection, schedule: Q01DX001 (ip), vehicle: carboxymethylcellulose (CMC)): 10 % of control | T/C (dose: 112.0 mg/kg/injection, schedule: Q07DX002 (ip), vehicle: carboxymethylcellulose (CMC)): 1 % of control

C[N+](C)(C)c1ncnc2c1ncn2C1OC(CO)C(O)C1O (centres undefined)
T/C (dose: 30.0 mg/kg/injection, schedule: Q01DX011 (ip), vehicle: saline): 48 % of control and 61 % of control | T/C (dose: 60.0 mg/kg/injection, schedule: Q01DX011 (ip), vehicle: saline): 109 % of control | T/C (dose: 120.0 mg/kg/injection, schedule: Q01DX011 (ip), vehicle: saline): 28 % of control | T/C (dose: 240.0 mg/kg/injection, schedule: Q01DX011 (ip), vehicle: saline): 9 % of control

CCOC=Nc1c(N)ncnc1Cl
T/C (dose: 30.0 mg/kg/injection, schedule: Q01DX011 (ip), vehicle: carboxymethylcellulose (CMC)): 67 % of control | T/C (dose: 50.0 mg/kg/injection, schedule: Q01DX011 (ip), vehicle: carboxymethylcellulose (CMC)): 107 % of control | T/C (dose: 60.0 mg/kg/injection, schedule: Q01DX011 (ip), vehicle: carboxymethylcellulose (CMC)): 34 % of control | T/C (dose: 62.5 mg/kg/injection, schedule: Q01DX011 (ip), vehicle: olive oil, sesame oil, peanut oil): 62 % of control | T/C (dose: 100.0 mg/kg/injection, schedule: Q01DX011 (ip), vehicle: carboxymethylcellulose (CMC)): 60 % of control | T/C (dose: 120.0 mg/kg/injection, schedule: Q01DX011 (ip), vehicle: carboxymethylcellulose (CMC)): 10 % of control | T/C (dose: 125.0 mg/kg/injection, schedule: Q01DX011 (ip), vehicle: olive oil, sesame oil, peanut oil): 65 % of control | T/C (dose: 200.0 mg/kg/injection, schedule: Q01DX011 (ip), vehicle: carboxymethylcellulose (CMC)): 38 % of control | T/C (dose: 240.0 mg/kg/injection, schedule: Q01DX011 (ip), vehicle: carboxymethylcellulose (CMC)): 2 % of control | T/C (dose: 250.0 mg/kg/injection, schedule: Q01DX011 (ip), vehicle: olive oil, sesame oil, peanut oil): 43 % of control | T/C (dose: 400.0 mg/kg/injection, schedule: Q01DX011 (ip), vehicle: carboxymethylcellulose (CMC)): 11 % of control | T/C (dose: 500.0 mg/kg/injection, schedule: Q01DX011 (ip), vehicle: olive oil, sesame oil, peanut oil): 23 % of control

Cc1cnc(SCc2ccc(Cl)cc2Cl)nc1SCc1ccc(Cl)cc1Cl
T/C (dose: 31.0 mg/kg/injection, schedule: Q01DX011 (ip), vehicle: methylcellulose (MC)): 114 % of control | T/C (dose: 125.0 mg/kg/injection, schedule: Q01DX011 (ip), vehicle: methylcellulose (MC)): 100 % of control | T/C (dose: 250.0 mg/kg/injection, schedule: Q01DX011 (ip), vehicle: methylcellulose (MC)): 117 % of control
